Measurements published in patent US20100196283A1, “METHOD AND IMAGING MEDIUM FOR USE IN THE METHOD” (priority 2007, published 2010).
One block for each compound: values may come before it.

Columns and labels:
[1] = Liquid state relaxation (T1 at 9.4 T); format: physicochemical; conditions: Example 5b
Procedure: (§1) Liquid state polarisation was determined by liquid state ^13C-NMR at 400 MHz to be 14%. The liquid state relaxation (T1 at 9.4 T) was determined to 44 s.

[2] = Liquid state polarisation by liquid state 13C-NMR at 400 MHz; format: physicochemical
Procedure: In a similar way, the level of polarisation for dissolved hyperpolarised ^13C-lactate may be determined by liquid state NMR measurements. Again the signal intensity of the dissolved hyperpolarised ^13C-lactate is compared with the signal intensity of the dissolved ^13C-lactate before polarisation. The level of polarisation is then calculated from the ratio of the signal intensities of ^13C-lactate before and after polarisation.
After 60 min dynamic nuclear polarisation, the frozen polarised composition obtained was dissolved in 6 ml phosphate buffer (20 mM, pH 7.4, 100 mg/l EDTA). The pH of the final solution containing the dissolved composition was 7.4±0.1. The sodium ^13C1-L-lactate concentration in said final solution was 60±2 mM.
Liquid state polarisation was determined by liquid state ^13C-NMR at 400 MHz to be 18-20%.
After an overnight dynamic nuclear polarisation, the frozen polarised composition obtained was dissolved in 6 ml phosphate buffer (40 mM, pH 7.3, osmolality match to 200 mM with NaCl, 100 mg/l EDTA, 1 eq. NaOH). The pH of the final solution containing the dissolved composition was 7.1. The D-lactate concentration in said final solution was 40 mM.
as §1

[3] = T1 relaxation in human full blood at 37° C.; format: physicochemical
Excerpt: The isotopic enrichment of the hyperpolarised ^13C-lactate used in the method of the invention is preferably at least 75%, more preferably at least 80% and especially preferably at least 90%, an isotopic enrichment of over 90% being most preferred. Ideally, the enrichment is 100%. ^13C-lactate used in the method of the invention may be isotopically enriched at the C1-position (in the following denoted ^13C1-lactate), at the C2-position (in the following denoted ^13C2-lactate), at the C3-position (in the following denoted ^13C3-lactate), at the C1- and the C2-position (in the following denoted ^13C1,2-lactate), at the C1- and the C3-position (in the following denoted ^13C1,3-lactate), at the C2- and the C3-position (in the following denoted ^13C2,3-lactate) or at the C1-, C2- and C3-position (in the following denoted ^13C1,2,3-lactate). Isotopic enrichment at the C1-position is the most preferred since ^13C1-lactate has a higher, i.e. longer T1 relaxation in human full blood at 37° C. than ^13C-lactate which is isotopically enriched at other C-positions.

[4] = tested on: mice (whole body); test: In vivo 13C-MR spectroscopy in mice (whole body); parameters: species or system C57Bl/6 mouse
Procedure: 200 μl of an imaging medium which was prepared as described in Example 1 was injected into a C57Bl/6 mouse over a time period of 6 s. The sodium ^13C1-lactate concentration in said imaging medium was 60-90 mM and 3 animals were used in the experiment. A rat size whole body coil (tuned for proton and carbon) was placed over the animal and ^13C-MR spectroscopy was carried out in a 9.4 T magnet. A dynamic set of ^13C-MR spectra (in total 30) was acquired every 3 s with a 15 degree RF pulse. […] The following decay times were calculated from the MR spectra: ^13C1-pyruvate 23 s, ^13C1-alanine 33 s and ^13C1-bicarbonate 24 s.

[5] = tested on: mice (liver); test: In vivo 13C-MR spectroscopy in mice (liver); parameters: species or system C57Bl/6 mouse; conditions: liver surface coil; 200 μl of about 60 mM imaging medium; 9.4 T
Procedure: 200 μl of an imaging medium which was prepared as described in Example 1 was injected into a C57Bl/6 mouse over a time period of 6 s. The sodium ^13C1-lactate concentration in said imaging medium was about 60 mM. A surface coil (tuned for proton and carbon) was positioned over the liver of the animal and ^13C-MR spectroscopy was carried out in a 9.4 T magnet. A dynamic set of ^13C-MR spectra (in total 20) was acquired every 5 s with a 30 degree RF pulse. Again a significant amount of metabolism was seen including ^13C1-pyruvate (approximately 3% of the ^13C1-lactate signal), followed by ^13C1-alanine (approximately 3.5% of the ^13C1-lactate signal) at a later point of time (FIG. 3).

[6] = tested on: Hep-G2 cells; test: In vitro 13C-MR spectroscopy in Hep-G2 cells; format: in vitro ADME
Procedure: An imaging medium was prepared as described in Example 1 and 25 μl of the imaging medium (2.7 mM sodium ^13C1-lactate) was mixed into 10 M Hep-G2 cells. A dynamic set of ^13C-MR spectra was acquired every 5 s with a 15 degree RF pulse. ^13C1-pyruvate was clearly building up over time. The average conversion was 0.3% with a peak conversion (0.4%) approximately 20 s into the experiment.

[7] = Solid state polarisation by solid state 13C-NMR after DNP; format: physicochemical
Excerpt: The level of polarisation may for instance be determined by solid state ^13C-NMR measurements in solid hyperpolarised ^13C-lactate, e.g. solid hyperpolarised ^13C-lactate obtained by dynamic nuclear polarisation (DNP) of ^13C-lactate. The solid state ^13C-NMR measurement preferably consists of a simple pulse-acquire NMR sequence using a low flip angle. The signal intensity of the hyperpolarised ^13C-lactate in the NMR spectrum is compared with signal intensity of ^13C-lactate in a NMR spectrum acquired before the polarisation process. The level of polarisation is then calculated from the ratio of the signal intensities before and after polarisation.
The probe is inserted into the probe-retaining container, submerged in the liquid helium and irradiated with microwaves. The microwave frequency may be determined from the EPR line of the DNP agent, which depends on the magnetic field of the magnet as 28.0 GHz/T. The optimal microwave frequency may be determined by adjusting the frequency for maximal NMR signal. Preferably, the optimal microwave frequency is in the about 94 GHz for a magnet charged to 3.35 T, 110 GHz for a magnet charged to 4 T, 140 GHz for a magnet charged to 5 T and 200 GHz for a magnet charged to 7 T. The power may be chosen between 50 and 200 mW, dependent on the probe size. The level of polarisation may be monitored as earlier described by for instance acquiring solid state ^13C-NMR signals of the probe during microwave irradiation. Generally, a saturation curve is obtained in a graph showing NMR signal vs. time. […] A solid state ^13C-NMR measurement suitably consists of a simple pulse-acquire NMR sequence using a low flip angle. […] The polarisation is then calculated from the ratio of the signal intensities before and after DNP.
To a micro test tube was added sodium ^13C1-L-lactate solution (78.5 mg, Aldrich, 50% w/w sodium ^13C1-lactate). […] Polarisation was followed by solid state ^13C-NMR and the solid state polarisation was determined to be 20%.

[8] = tested on: mice (heart); test: In vivo 13C-MR spectroscopy in mice (heart); parameters: species or system C57Bl/6 mouse; conditions: heart surface coil; 200 μl of about 60 mM imaging medium; 9.4 T
Procedure: 200 μl of an imaging medium which was prepared as described in Example 1 was injected into a C57Bl/6 mouse over a time period of 6 s. The sodium ^13C1-lactate concentration in said imaging medium was about 60 mM and 2 animals were used in the experiment. A surface coil (tuned for proton and carbon) was positioned over the heart of the animal and ^13C-MR spectroscopy was carried out in a 9.4 T magnet. A dynamic set of ^13C-MR spectra (in total 20) was acquired every 5 s with a 30 degree RF pulse. Again a significant amount of metabolism was seen including ^13C1-pyruvate (approximately 2% of the ^13C1-lactate signal), followed by ^13C1-alanine at a later point of time. ^13C1-bicarbonate (approximately 0.5% of the ^13C1-lactate signal) was observable at a similar peak time as ^13C1-pyruvate (FIG. 5).

[9] = 200 μl of 60-90 mM imaging medium injected over 6 s, 9.4 T

- liquid state relaxation (T1) [1]: 44 s
- liquid state polarisation ([2]; Example 5b, overnight DNP of D-lactic acid, dissolved in phosphate buffer with 1 eq. NaOH, 13C-NMR at 400 MHz): 14%
Compound: C[C@@H](O)C(=O)O [D-lactate]

- T1 relaxation versus 13C-lactate enriched at other C-positions [3]: longer
Compound: C[C@H](O)[13C](=O)O [^13C1-lactate]

- 13C1-alanine signal as % of the 13C1-lactate signal [4, 9]: approximately 1.5%
- 13C1-bicarbonate signal as % of the 13C1-lactate signal [4, 9]: approximately 0.5%
- 13C1-pyruvate signal as % of the 13C1-lactate signal [4, 9]: approximately 2%
- decay time of 13C1-alanine signal ([4]; calculated from the MR spectra): 33 s
- decay time of 13C1-bicarbonate signal ([4]; calculated from the MR spectra): 24 s
- decay time of 13C1-pyruvate signal ([4]; calculated from the MR spectra): 23 s
- 13C1-alanine signal as % of the 13C1-lactate signal [5]: approximately 3.5%
- 13C1-bicarbonate levels observed [5]: very low levels
- 13C1-pyruvate signal as % of the 13C1-lactate signal [5]: approximately 3%
- peak conversion to 13C1-pyruvate ([6]; 25 μl imaging medium (2.7 mM sodium 13C1-lactate) mixed into 10 M Hep-G2 cells): 0.4%
- average conversion to 13C1-pyruvate ([6]; 25 μl imaging medium (2.7 mM sodium 13C1-lactate) mixed into 10 M Hep-G2 cells, spectra every 5 s): 0.3%
- time of peak conversion to 13C1-pyruvate ([6]; Hep-G2 cells, time into the experiment): approximately 20 s
- solid state polarisation ([7]; Example 1a, aqueous trityl radical and Gd-chelate solutions, DNP at 1.2 K, 3.35 T, 94 GHz): 20%
- solid state polarisation ([7]; Example 2, water/glycerol mixture (75:25) for trityl and Gd-chelate solutions): 17-20%
- solid state polarisation ([7]; Example 3, water/glycerol mixture (50:50) for trityl and Gd-chelate solutions): 25%
- liquid state polarisation ([2]; Example 1b, after 60 min DNP, dissolved in 6 ml phosphate buffer pH 7.4, 13C-NMR at 400 MHz): 18-20%
- liquid state polarisation ([2]; Example 2, water/glycerol mixture (75:25), dissolved as in Example 1b): 15-20%
- liquid state polarisation ([2]; Example 3, water/glycerol mixture (50:50), dissolved as in Example 1b): 25%
- 13C1-bicarbonate signal as % of the 13C1-lactate signal [8]: approximately 0.5%
- 13C1-pyruvate signal as % of the 13C1-lactate signal [8]: approximately 2%
Compound: C[C@H](O)[13C](=O)[O-].[Na+] [sodium ^13C1-L-lactate]
